The values that follow come from the supplement of paper PMC10307832.

Test in all cases: relative viability (nuclei count vs DMSO), 5 days (fraction); higher = more cells survive
Compound in assay [1]: CC1(C)CNc2cc(NC(=O)c3cccnc3NCc3ccncc3)ccc21 [Motesanib] + C[C@]1(O)C[C@@H](c2nc(-c3ccc4ccc(-c5ccccc5)nc4c3)c3c(N)nccn32)C1 [Linsitinib] (partner 1 µM)
Put shortly: (§1)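 Each reported value is a median over duplicate plates. It expresses relative viability: treated-well nuclei count divided by vehicle-well nuclei count. Lung cancer cell lines in 1536-well plates were dosed by pin tool a day after seeding, alone with one drug or with a fixed anchor-drug dose plus five library-drug doses (not always all listed) in √10 steps, and nuclei were counted after 5 days.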

Compound in assay [2]: CC1(C)CNc2cc(NC(=O)c3cccnc3NCc3ccncc3)ccc21 [Motesanib] + Cc1nc(Nc2ncc(C(=O)Nc3c(C)cccc3Cl)s2)cc(N2CCN(CCO)CC2)n1 [Dasatinib] (partner 0.075 µM)
In a few lines:
as §1

Compound in assay [3]: CC1(C)CNc2cc(NC(=O)c3cccnc3NCc3ccncc3)ccc21 [Motesanib] + Nc1nc2[nH]cc(CCc3ccc(C(=O)N[C@@H](CCC(=O)O)C(=O)O)cc3)c2c(=O)[nH]1 [Pemetrexed] (partner 0.2 µM)
In a few lines: as §1

Compound in assay [4]: C[C@@]1(C(=O)Nc2ccc(F)nc2)CCCN1c1nc(Nc2cc(C3CC3)n[nH]2)c2cccn2n1 + CS(=O)(=O)CCNCc1ccc(-c2ccc3ncnc(Nc4ccc(OCc5cccc(F)c5)c(Cl)c4)c3c2)o1 [Lapatinib] (partner 2 µM)
Put shortly:
as §1

For LC-2-ad, the relative viability in assay [1] (first compound 0.01 µM) was 0.828; in assay [1] (first compound 0.03162 µM), 0.834; in assay [1] (first compound 0.1 µM) it was 0.858; in assay [1] (first compound 0.3162 µM), 0.881; in assay [1] (first compound 1 µM), 0.766; in assay [2] (first compound 0.01 µM) it was 0.539. Also, the relative viability in assay [2] (first compound 0.03162 µM) amounted to 0.575; in assay [2] (first compound 0.1 µM), 0.745; in assay [2] (first compound 0.3162 µM) it was 0.503; in assay [2] (first compound 1 µM), 0.496; in assay [3] (first compound 0.01 µM) it was 0.289; in assay [3] (first compound 0.03162 µM), 0.259. Besides, the relative viability came out at 0.268 in assay [3] (first compound 0.1 µM); 0.262 in assay [3] (first compound 0.3162 µM); 0.256 in assay [3] (first compound 1 µM); 0.904 in assay [4] (first compound 0.04 µM); 0.759 in assay [4] (first compound 0.1265 µM); 0.745 in assay [4] (first compound 0.4 µM). The relative viability in assay [4] (first compound 1.265 µM) turned out to be 0.32.
As to COR-L 105, the relative viability in assay [1] (first compound 0.01 µM) was 0.872; in assay [1] (first compound 0.03162 µM), 1.22; in assay [1] (first compound 0.1 µM) it was 1.04; in assay [1] (first compound 0.3162 µM), 0.889; in assay [1] (first compound 1 µM), 1.17; in assay [2] (first compound 0.01 µM), 0.407. Also, the relative viability in assay [2] (first compound 0.03162 µM) is 0.243; in assay [2] (first compound 0.1 µM) it was 0.308; in assay [2] (first compound 0.3162 µM), 0.401; in assay [2] (first compound 1 µM) it was 0.394; in assay [3] (first compound 0.01 µM), 1.19; in assay [3] (first compound 0.03162 µM) it was 0.96. Also, the relative viability in assay [3] (first compound 0.1 µM) worked out at 1.34; in assay [3] (first compound 0.3162 µM), 1.12; in assay [3] (first compound 1 µM), 1.33; in assay [4] (first compound 0.04 µM) it was 0.344; in assay [4] (first compound 0.1265 µM), 0.324; in assay [4] (first compound 0.4 µM), 0.28. In addition, the relative viability in assay [4] (first compound 1.265 µM) stood at 0.233.
For the cell line NCI-H1355, the relative viability in assay [1] (first compound 0.01 µM) is 0.792; in assay [1] (first compound 0.03162 µM), 0.75; in assay [1] (first compound 0.1 µM) it was 0.801; in assay [1] (first compound 0.3162 µM) it was 0.865; in assay [1] (first compound 1 µM), 0.834; in assay [2] (first compound 0.01 µM), 0.74. Besides, the relative viability came out at 0.548 in assay [2] (first compound 0.03162 µM); 0.717 in assay [2] (first compound 0.1 µM); 0.732 in assay [2] (first compound 0.3162 µM); 0.684 in assay [2] (first compound 1 µM); 1.06 in assay [3] (first compound 0.01 µM); 1.04 in assay [3] (first compound 0.03162 µM). Also, the relative viability in assay [3] (first compound 0.1 µM) was 1.05; in assay [3] (first compound 0.3162 µM) it was 1.07; in assay [3] (first compound 1 µM), 0.991; in assay [4] (first compound 0.04 µM), 0.908; in assay [4] (first compound 0.1265 µM) it was 0.831; in assay [4] (first compound 0.4 µM), 0.711. Moreover, the relative viability in assay [4] (first compound 1.265 µM) was found to be 0.654.
In the case of H3255, the relative viability in assay [1] (first compound 0.01 µM) amounted to 0.949; in assay [1] (first compound 0.03162 µM), 1.02; in assay [1] (first compound 0.1 µM), 0.913; in assay [1] (first compound 0.3162 µM) it was 1.06; in assay [1] (first compound 1 µM), 0.871; in assay [2] (first compound 0.01 µM) it was 0.304. Besides, the relative viability in assay [2] (first compound 0.03162 µM) came out at 0.38; in assay [2] (first compound 0.1 µM), 0.473; in assay [2] (first compound 0.3162 µM), 0.302; in assay [2] (first compound 1 µM) it was 0.338; in assay [3] (first compound 0.01 µM) it was 0.552; in assay [3] (first compound 0.03162 µM) it was 0.59. Besides, the relative viability in assay [3] (first compound 0.1 µM) was found to be 0.602; in assay [3] (first compound 0.3162 µM), 0.589; in assay [3] (first compound 1 µM), 0.587; in assay [4] (first compound 0.04 µM), 0.243; in assay [4] (first compound 0.1265 µM), 0.291; in assay [4] (first compound 0.4 µM), 0.226. In addition, the relative viability in assay [4] (first compound 1.265 µM) amounted to 0.155.
NCI-H1993: the relative viability in assay [1] (first compound 0.01 µM) stood at 0.675; in assay [1] (first compound 0.03162 µM), 0.759; in assay [1] (first compound 0.1 µM), 0.727; in assay [1] (first compound 0.3162 µM), 0.719; in assay [1] (first compound 1 µM) it was 0.762; in assay [2] (first compound 0.01 µM), 0.629. Also, the relative viability in assay [2] (first compound 0.03162 µM) was 0.509; in assay [2] (first compound 0.1 µM), 0.639; in assay [2] (first compound 0.3162 µM), 0.63; in assay [2] (first compound 1 µM), 0.588; in assay [3] (first compound 0.01 µM), 0.452; in assay [3] (first compound 0.03162 µM), 0.623. Also, the relative viability was determined as 0.533 in assay [3] (first compound 0.1 µM); 0.641 in assay [3] (first compound 0.3162 µM); 0.57 in assay [3] (first compound 1 µM); 0.797 in assay [4] (first compound 0.04 µM); 0.663 in assay [4] (first compound 0.4 µM); 0.592 in assay [4] (first compound 1.265 µM).
In the case of NCI-H1734, the relative viability in assay [1] (first compound 0.01 µM) came to 0.843; in assay [1] (first compound 0.03162 µM), 0.951; in assay [1] (first compound 0.1 µM) it was 0.897; in assay [1] (first compound 0.3162 µM), 0.976; in assay [1] (first compound 1 µM) it was 1.01; in assay [2] (first compound 0.01 µM), 0.515. Also, the relative viability came to 0.448 in assay [2] (first compound 0.03162 µM); 0.463 in assay [2] (first compound 0.3162 µM); 0.405 in assay [2] (first compound 1 µM); 0.408 in assay [3] (first compound 0.01 µM); 0.386 in assay [3] (first compound 0.03162 µM); 0.333 in assay [3] (first compound 0.1 µM). Moreover, the relative viability in assay [3] (first compound 0.3162 µM) was 0.272; in assay [3] (first compound 1 µM), 0.265; in assay [4] (first compound 0.04 µM) it was 1; in assay [4] (first compound 0.1265 µM), 0.814; in assay [4] (first compound 0.4 µM) it was 0.817; in assay [4] (first compound 1.265 µM), 0.98.
As to HOP-62, the relative viability in assay [1] (first compound 0.01 µM) was found to be 0.732; in assay [1] (first compound 0.03162 µM) it was 0.956; in assay [1] (first compound 0.1 µM), 0.806; in assay [1] (first compound 0.3162 µM), 1.05; in assay [1] (first compound 1 µM), 1.03; in assay [2] (first compound 0.01 µM) it was 0.658. The relative viability was determined as 0.6 in assay [2] (first compound 0.03162 µM); 0.715 in assay [2] (first compound 0.1 µM); 0.692 in assay [2] (first compound 0.3162 µM); 0.757 in assay [2] (first compound 1 µM); 0.288 in assay [3] (first compound 0.01 µM); 0.296 in assay [3] (first compound 0.03162 µM). For the same cell line, the relative viability in assay [3] (first compound 0.1 µM) was found to be 0.214; in assay [3] (first compound 0.3162 µM), 0.209; in assay [3] (first compound 1 µM), 0.173; in assay [4] (first compound 0.04 µM) it was 0.978; in assay [4] (first compound 0.1265 µM), 0.907; in assay [4] (first compound 0.4 µM), 1.05. Moreover, the relative viability in assay [4] (first compound 1.265 µM) is 1.04.
As to LOU-NH91, the relative viability in assay [1] (first compound 0.01 µM) was found to be 1.05; in assay [1] (first compound 0.03162 µM) it was 0.996; in assay [1] (first compound 0.1 µM), 0.942; in assay [1] (first compound 0.3162 µM), 0.91; in assay [1] (first compound 1 µM), 0.996; in assay [2] (first compound 0.01 µM), 0.515. The relative viability in assay [2] (first compound 0.03162 µM) was 0.536; in assay [2] (first compound 0.1 µM), 0.621; in assay [2] (first compound 0.3162 µM), 0.594; in assay [2] (first compound 1 µM), 0.586; in assay [3] (first compound 0.01 µM), 0.357; in assay [3] (first compound 0.03162 µM) it was 0.37. Further, the relative viability turned out to be 0.373 in assay [3] (first compound 0.1 µM); 0.406 in assay [3] (first compound 0.3162 µM); 0.382 in assay [3] (first compound 1 µM); 0.671 in assay [4] (first compound 0.04 µM); 0.567 in assay [4] (first compound 0.1265 µM); 0.601 in assay [4] (first compound 0.4 µM). In addition, in assay [4] (first compound 1.265 µM), the relative viability was 0.564.
